Tests used:
[1] = system: Klebsiella pneumoniae; assay: Hormesis activity against Klebsiella pneumonia deficient in KmrA gene expression assessed as promotion of bacterial growth at 3 to 6 ug/ml measured for 24 hrs by OD600 based analysis; format: organism-based; conditions: in vivo, dose 3-6 µg/ml
[2] = Upregulation of efflux pump regulator promoter activity in Klebsiella pneumoniae assessed as increase in beta-galactosidase activity at 50 ug/ml by LacZ based OD600 analysis relative to control; format: ADME; conditions: dose 50 µg/ml
[3] = system: Klebsiella pneumoniae; assay: Hormesis activity against Klebsiella pneumonia assessed as promotion of bacterial growth by measuring prolonged logarithmic growth phase at 3 to 6 ug/ml measured for 24 hrs in presence of 1 ug/ml tetracycline by OD600 based analysis; format: organism-based; conditions: in vivo, dose 3-6 µg/ml
[4] = system: Klebsiella pneumoniae; assay: Hormesis activity against Klebsiella pneumoniae assessed as promotion of bacterial growth at 3 to 6 ug/ml measured for 24 hrs in presence of efflux pump inhibitor, CCCP by OD600 based analysis; format: ADME, organism-based; conditions: in vivo, dose 3-6 µg/ml
[5] = system: Enterobacter cloacae; assay: Hormesis activity against Enterobacter cloacae assessed as promotion of bacterial growth up to 25 ug/ml measured for 24 hrs in presence of efflux pump inhibitor, CCCP and 8 ug/ml tetracycline by OD600 based analysis; format: ADME, organism-based; conditions: in vivo, dose <=25 µg/ml
[6] = system: Acinetobacter baumannii; assay: Hormesis activity against Acinetobacter baumannii assessed as promotion of bacterial growth at 3 to 50 ug/ml measured for 24 hrs in presence of 80 to 120 ug/ml tetracycline by OD600 based analysis; format: organism-based; conditions: in vivo, dose 3-50 µg/ml
[7] = system: Klebsiella pneumoniae; assay: Hormesis activity against Klebsiella pneumoniae assessed as increase in antibiotic MIC by measuring azithromycin MIC at 3 ug/ml incubated for 12 hrs by OD600 based analysis (reference value: 1.5625 ug/ml); format: ADME, organism-based; conditions: in vivo, dose 3 µg/ml
[8] = system: Klebsiella pneumoniae; assay: Hormesis activity against Klebsiella pneumoniae assessed as increase in antibiotic MIC by measuring chloramphenicol MIC at 3 ug/ml incubated for 12 hrs by OD600 based analysis (reference value: 6.25 ug/ml); format: ADME, organism-based; conditions: in vivo, dose 3 µg/ml
[9] = system: Klebsiella pneumoniae; assay: Hormesis activity against Klebsiella pneumoniae assessed as increase in antibiotic MIC by measuring hygromycinMIC at 3 ug/ml incubated for 12 hrs by OD600 based analysis (reference value: 12.5 ug/ml); format: ADME, organism-based; conditions: in vivo, dose 3 µg/ml
[10] = system: Klebsiella pneumoniae; assay: Hormesis activity against Klebsiella pneumoniae deficient in KmrA gene expression assessed as increase in antibiotic MIC by measuring cefotaxime MIC at 3 ug/ml incubated for 12 hrs by OD600 based analysis (reference value: 0.39625 ug/ml); format: ADME, organism-based; conditions: in vivo, dose 3 µg/ml
[11] = system: Klebsiella pneumoniae; assay: Hormesis activity against Klebsiella pneumoniae deficient in KmrA gene expression assessed as increase in antibiotic MIC by measuring atreonamMIC at 3 ug/ml incubated for 12 hrs by OD600 based analysis (reference value: 1.5625 ug/ml); format: ADME, organism-based; conditions: in vivo, dose 3 µg/ml
[12] = system: Klebsiella pneumoniae; assay: Hormesis activity against overnight compound-treated Klebsiella pneumoniae deficient in KmrA gene expression assessed as increase in antibiotic MIC by measuring rifampicin MIC at 3 ug/ml incubated for 12 hrs by OD600 based analysis (reference value: 25 ug/ml); format: ADME, organism-based; conditions: in vivo, dose 3 µg/ml
[13] = system: Klebsiella pneumoniae; assay: Hormesis activity against overnight compound-treated Klebsiella pneumoniae deficient in KmrA gene expression assessed as increase in antibiotic MIC by measuring ciprofloxacin MIC at 3 ug/ml incubated for 12 hrs by OD600 based analysis (reference value: 0.0390625 ug/ml); format: ADME, organism-based; conditions: in vivo, dose 3 µg/ml
[14] = system: Klebsiella pneumoniae; assay: Hormesis activity against overnight compound-treated Klebsiella pneumoniae deficient in KmrA gene expression assessed as increase in antibiotic MIC by measuring hygromycinMIC at 3 ug/ml incubated for 12 hrs by OD600 based analysis (reference value: 12.5 ug/ml); format: ADME, organism-based; conditions: in vivo, dose 3 µg/ml
[15] = system: Klebsiella pneumoniae; assay: Hormesis activity against overnight compound-treated Klebsiella pneumoniae deficient in KmrA gene expression assessed as increase in antibiotic MIC by measuring ampicillin MIC at 3 ug/ml incubated for 12 hrs by OD600 based analysis (reference value: 12.5 ug/ml); format: ADME, organism-based; conditions: in vivo, dose 3 µg/ml
[16] = system: Klebsiella pneumoniae; assay: Hormesis activity against overnight compound-treated Klebsiella pneumoniae deficient in KmrA gene expression assessed as increase in antibiotic MIC by measuring atreonamMIC at 3 ug/ml incubated for 12 hrs by OD600 based analysis (reference value: 1.5625 ug/ml); format: ADME, organism-based; conditions: in vivo, dose 3 µg/ml
[17] = system: Enterobacter cloacae; assay: Hormesis activity against Enterobacter cloacae assessed as increase in antibiotic MIC by measuring rifampicin MIC at 3 ug/ml incubated for 12 hrs by OD600 based analysis (reference value: 25 ug/ml); format: ADME, organism-based; conditions: in vivo, dose 3 µg/ml
[18] = system: Enterobacter cloacae; assay: Hormesis activity against Enterobacter cloacae assessed as increase in antibiotic MIC by measuring ampicillin MIC at 3 ug/ml incubated for 12 hrs by OD600 based analysis (reference value: 25 ug/ml); format: ADME, organism-based; conditions: in vivo, dose 3 µg/ml
[19] = system: Enterobacter cloacae; assay: Hormesis activity against Enterobacter cloacae assessed as increase in antibiotic MIC by measuring atreonamMIC at 3 ug/ml incubated for 12 hrs by OD600 based analysis (reference value: 3.125 ug/ml); format: ADME, organism-based; conditions: in vivo, dose 3 µg/ml
[20] = system: Enterobacter cloacae; assay: Hormesis activity against overnight compound-treated Enterobacter cloacae assessed as increase in antibiotic MIC by measuring rifampicin MIC at 3 ug/ml incubated for 12 hrs by OD600 based analysis (reference value: 25 ug/ml); format: ADME, organism-based; conditions: in vivo, dose 3 µg/ml
[21] = system: Enterobacter cloacae; assay: Hormesis activity against overnight compound-treated Enterobacter cloacae assessed as increase in antibiotic MIC by measuring azithromycin MIC at 3 ug/ml incubated for 12 hrs by OD600 based analysis (reference value: 6.25 ug/ml); format: ADME, organism-based; conditions: in vivo, dose 3 µg/ml
[22] = system: Enterobacter cloacae; assay: Hormesis activity against overnight compound-treated Enterobacter cloacae assessed as increase in antibiotic MIC by measuring streptomycin MIC at 3 ug/ml incubated for 12 hrs by OD600 based analysis (reference value: 12.5 ug/ml); format: ADME, organism-based; conditions: in vivo, dose 3 µg/ml
[23] = system: Enterobacter cloacae; assay: Hormesis activity against overnight compound-treated Enterobacter cloacae assessed as increase in antibiotic MIC by measuring ciprofloxacin MIC at 3 ug/ml incubated for 12 hrs by OD600 based analysis (reference value: 0.0390625 ug/ml); format: ADME, organism-based; conditions: in vivo, dose 3 µg/ml
[24] = system: Acinetobacter baumannii; assay: Hormesis activity against Acinetobacter baumannii assessed as increase in antibiotic MIC by measuring rifampicin MIC at 3 ug/ml incubated for 12 hrs by OD600 based analysis (reference value: 1.5625 ug/ml); format: ADME, organism-based; conditions: in vivo, dose 3 µg/ml
[25] = system: Acinetobacter baumannii; assay: Hormesis activity against Acinetobacter baumannii assessed as increase in antibiotic MIC by measuring atreonamMIC at 3 ug/ml incubated for 12 hrs by OD600 based analysis (reference value: 6.25 ug/ml); format: ADME, organism-based; conditions: in vivo, dose 3 µg/ml
[26] = system: Acinetobacter baumannii; assay: Hormesis activity against overnight-compound treated Acinetobacter baumannii assessed as increase in antibiotic MIC by measuring tetracycline MIC at 3 ug/ml incubated for 12 hrs by OD600 based analysis (reference value: 240 ug/ml); format: ADME, organism-based; conditions: in vivo, dose 3 µg/ml
[27] = system: Acinetobacter baumannii; assay: Hormesis activity against overnight-compound treated Acinetobacter baumannii assessed as increase in antibiotic MIC by measuring rifampicin MIC at 3 ug/ml incubated for 12 hrs by OD600 based analysis (reference value: 1.5625 ug/ml); format: ADME, organism-based; conditions: in vivo, dose 3 µg/ml
[28] = system: Acinetobacter baumannii; assay: Hormesis activity against overnight-compound treated Acinetobacter baumannii assessed as increase in antibiotic MIC by measuring streptomycin MIC at 3 ug/ml incubated for 12 hrs by OD600 based analysis (reference value: 400 ug/ml); format: ADME, organism-based; conditions: in vivo, dose 3 µg/ml

- fold change (FC) [2]: 2
- MIC [7]: 3.125 mg/L
- MIC [8]: 6.25 mg/L
- MIC [9]: 12.5 mg/L
- MIC [10]: 0.3962 mg/L
- MIC [11]: 1.5625 mg/L
- MIC [12]: 25 mg/L
- MIC [13]: 0.07812 mg/L
- MIC [14]: 12.5 mg/L
- MIC [15]: 12.5 mg/L
- MIC [16]: 1.5625 mg/L
- MIC [17]: 25 mg/L
- MIC [18]: 25 mg/L
- MIC [19]: 3.125 mg/L
- MIC [20]: 50 mg/L
- MIC [21]: 6.25 mg/L
- MIC [22]: 25 mg/L
- MIC [23]: 0.1562 mg/L
- MIC [24]: 3.125 mg/L
- MIC [25]: 6.25 mg/L
- MIC [26]: 360 mg/L
- MIC [27]: 6.25 mg/L
- MIC [28]: 400 mg/L
Compound: COc1ccc2cc3[n+](cc2c1OC)CCc1cc2c(cc1-3)OCO2 [BERBERINE]
- Activity [1]: Non-Toxic
- Activity [3]: Toxic
- Activity [4]: Non-Toxic
- Activity [5]: Non-Toxic
- Activity [6]: Toxic

Source: ChEMBL document CHEMBL4831545, “Hormesis Effect of Berberine against Klebsiella pneumoniae Is Mediated by Up-Regulation of the Efflux Pump KmrA” (J Nat Prod, 2021)
